From US20170050957A1, “4-AMINO-6-(HETEROCYCLIC)PICOLINATES AND 6-AMINO-2-(HETEROCYCLIC)PYRIMIDINE-4-CARBOXYLATES AND THEIR USE AS HERBICIDES” (Dow AgroSciences LLC, priority 2013, published 2017)
Where two headings read alike, the source gives them in different places.

Columns and labels:
[1] = test system: Key Broadleaf Weed and Crop Species; experiment: Post-emergent Test II herbicidal activity (Table 15); format: in vivo; conditions: post-emergence, 336 h, 14 d; for pest or weed control at 35 g/ha: 35 g ai/ha; for pest or weed control at 70 g/ha: 70 g ai/ha; for pest or weed control at 140 g/ha: 140 g ai/ha
In short: (§1)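 Visual injury rating (0 = none, 100 = complete kill) taken 14 d after treatment, relative to untreated plants. Compounds in acetone/DMSO with crop oil concentrate and Triton X-155 were track-sprayed at 187 L/ha onto seedlings at the first-second true leaf stage.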

[2] = test system: Key Grass and Sedge Weeds as well as Grass Crops; experiment: Post-emergent Test II herbicidal activity (Table 16); format: in vivo; conditions: post-emergence, 336 h, 14 d; for pest or weed control at 35 g/ha: 35 g ai/ha; for pest or weed control at 70 g/ha: 70 g ai/ha; for pest or weed control at 140 g/ha: 140 g ai/ha
In short: as §1

[3] = Abutilon theophrasti, velvetleaf (Abutilon theophrasti), read-out: Visual Growth Reduction (%) 14 Days After Application, ABUTH
[4] = Amaranthus retroflexus, redroot pigweed (Amaranthus retroflexus), read-out: Visual Growth Reduction (%) 14 Days After Application, AMARE
[5] = Brassica napus, oilseed rape, canola (Brassica napus), read-out: Visual Growth Reduction (%) 14 Days After Application, BRSNN
[6] = Chenopodium album, lambsquarters (Chenopodium album), read-out: Visual Growth Reduction (%) 14 Days After Application, CHEAL
[7] = Euphorbia heterophylla, wild poinsettia (Euphorbia heterophylla), read-out: Visual Growth Reduction (%) 14 Days After Application, EPHHL
[8] = Helianthus annuus, sunflower (Helianthus annuus), read-out: Visual Growth Reduction (%) 14 Days After Application, HELAN
[9] = Cyperus esculentus, yellow nutsedge (Cyperus esculentus), read-out: Visual Growth Reduction (%) 14 Days After Application, CYPES
[10] = Echinochloa crus-galli, barnyardgrass (Echinochloa crus-galli), read-out: Visual Growth Reduction (%) 14 Days After Application, ECHCG
[11] = Oryza sativa, rice (Oryza sativa), read-out: Visual Growth Reduction (%) 14 Days After Application, ORYSA
[12] = Setaria faberi, giant foxtail (Setaria faberi), read-out: Visual Growth Reduction (%) 14 Days After Application, SETFA
[13] = Triticum aestivum, wheat, spring (Triticum aestivum), read-out: Visual Growth Reduction (%) 14 Days After Application, TRZAS
[14] = Zea mays, maize, corn (Zea mays), read-out: Visual Growth Reduction (%) 14 Days After Application, ZEAMX

| SMILES | pest or weed control at 35 g/ha [1, 3] [%] | pest or weed control at 70 g/ha [1, 3] [%] | pest or weed control at 140 g/ha [1, 3] [%] | pest or weed control at 35 g/ha [1, 4] [%] | pest or weed control at 70 g/ha [1, 4] [%] | pest or weed control at 140 g/ha [1, 4] [%] | pest or weed control at 35 g/ha [1, 5] [%] | pest or weed control at 70 g/ha [1, 5] [%] | pest or weed control at 140 g/ha [1, 5] [%] | pest or weed control at 35 g/ha [1, 6] [%] | pest or weed control at 70 g/ha [1, 6] [%] | pest or weed control at 140 g/ha [1, 6] [%] | pest or weed control at 35 g/ha [1, 7] [%] | pest or weed control at 70 g/ha [1, 7] [%] | pest or weed control at 140 g/ha [1, 7] [%] | pest or weed control at 35 g/ha [1, 8] [%] | pest or weed control at 70 g/ha [1, 8] [%] | pest or weed control at 140 g/ha [1, 8] [%] | pest or weed control at 35 g/ha [2, 9] [%] | pest or weed control at 70 g/ha [2, 9] [%] | further results |
| --- | --- | --- | --- | --- | --- | --- | --- | --- | --- | --- | --- | --- | --- | --- | --- | --- | --- | --- | --- | --- | --- |
| COC(=O)c1nc(-c2ccc(Cl)c3[nH]ccc23)nc(N)c1OC [Compound 1.45] | 0 to 29 | 0 to 29 | 0 to 29 | 0 to 29 | 0 to 29 | 45 to 59 | 0 to 29 | 0 to 29 | 0 to 29 | 0 to 29 | 0 to 29 | 0 to 29 | 0 to 29 | 0 to 29 | 0 to 29 | 0 to 29 | 0 to 29 | 30 to 44 | 0 to 29 | 0 to 29 | pest or weed control at 140 g/ha [2, 9]: 0 to 29%; pest or weed control at 35 g/ha [2, 10]: 0 to 29%; pest or weed control at 70 g/ha [2, 10]: 0 to 29%; pest or weed control at 140 g/ha [2, 10]: 0 to 29%; pest or weed control at 35 g/ha [2, 11]: 0 to 29%; pest or weed control at 70 g/ha [2, 11]: 0 to 29%; pest or weed control at 140 g/ha [2, 11]: 0 to 29%; pest or weed control at 35 g/ha [2, 12]: 0 to 29%; pest or weed control at 70 g/ha [2, 12]: 0 to 29%; pest or weed control at 140 g/ha [2, 12]: 0 to 29%; pest or weed control at 35 g/ha [2, 13]: 0 to 29%; pest or weed control at 70 g/ha [2, 13]: 0 to 29%; pest or weed control at 140 g/ha [2, 13]: 0 to 29%; pest or weed control at 35 g/ha [2, 14]: 0 to 29%; pest or weed control at 70 g/ha [2, 14]: 0 to 29%; pest or weed control at 140 g/ha [2, 14]: 0 to 29%; melting point: 226 °C |
| COC(=O)c1nc(-c2cccc3cc[nH]c23)c(F)c(N)c1Cl [Compound 1.47] | 0 to 29 | 0 to 29 | 0 to 29 | 0 to 29 | 0 to 29 | 30 to 44 | 0 to 29 | 0 to 29 | 0 to 29 | 75 to 84 | 75 to 84 | 85 to 94 | 0 to 29 | 0 to 29 | 0 to 29 | 0 to 29 | 0 to 29 | 45 to 59 | 0 to 29 | 0 to 29 | pest or weed control at 140 g/ha [2, 9]: 0 to 29%; pest or weed control at 35 g/ha [2, 10]: 0 to 29%; pest or weed control at 70 g/ha [2, 10]: 0 to 29%; pest or weed control at 140 g/ha [2, 10]: 0 to 29%; pest or weed control at 35 g/ha [2, 11]: 0 to 29%; pest or weed control at 70 g/ha [2, 11]: 0 to 29%; pest or weed control at 140 g/ha [2, 11]: 0 to 29%; pest or weed control at 35 g/ha [2, 12]: 0 to 29%; pest or weed control at 70 g/ha [2, 12]: 0 to 29%; pest or weed control at 140 g/ha [2, 12]: 0 to 29%; pest or weed control at 35 g/ha [2, 13]: 0 to 29%; pest or weed control at 70 g/ha [2, 13]: 0 to 29%; pest or weed control at 140 g/ha [2, 13]: 0 to 29%; pest or weed control at 35 g/ha [2, 14]: 0 to 29%; pest or weed control at 70 g/ha [2, 14]: 0 to 29%; pest or weed control at 140 g/ha [2, 14]: 0 to 29%; melting point: 96 to 100 °C |
